In US10689342B2, “Aza-tanshinone derivatives, process for their preparation and their use in therapy” (UNIVERSITA' DEGLI STUDI DI MILANO, priority 2016, dated 2020):

Columns and labels:
[1] = biological target: T1, HuR-mRNA interaction (Homo sapiens, UniProt Q15717); assay: AlphaScreen assay, inhibition of HuR-mRNA interaction; assay type: binding; conditions: for IC50: rHuR and biotinylated RNA probe
T1 construct: made in house; host or cells: HEK293T cells
Protocol: The full encoding sequence for human HuR/ELAVL1 gene (NM001419) has been amplified from cDNA obtained by retro-transcription from RNA of MCF7 cells and inserted into the pCMV6-AC-Myc-His PrecisionShuttle vector (Origene Technologies). The pCMV6-HuR recombinant vector has been transfected into HEK293T cells by using the transfection reagent Lipofectamine® 2000 (Life Technologies) according to the manufacturer protocol. HEK293T cells have been cultured in a complete medium (10% DMEM, 10% FBS, 2 mM Glutamine, 100 units/ml penicillin+100 μg/ml streptomycin) in humidified 5% CO2 atmosphere at 37° C.
Two types of assay have been performed, in order to define the profile of the aza-tanshinones and their inhibitory activity. REMSA (RNA-EMSA, RNA electrophoresis mobility shift assay) in 5% polyacrylamide gel requires the use of a RNA fluorescent probe (5′-Cy3-[…]), while the AlphaScreen assay required a RNA 5′-biotinylated probe (BiTNF, 5′-[…]). […] IC50 values have been obtained by means of non-linear regression of the fit of the log(dose) response by using the same software.

[2] = alamar Blue viability assay; assay type: cell-based; conditions: human, 24 hours, vs DMSO
Protocol: (§1) Tumor cell lines of metastatic breast cancer (MDA-MB-231), breast cancer (MCF7), human monocytic leukemia (THP-1) and pancreatic carcinoma (PANC-1) have been cultured in a complete DMEM or RPMI 1640 (Gibco Life Technologies) supplemented with 10% fetal bovine serum (FBS, Lonza), 2 mM L-glutamine and 100 U/ml penicillin-streptomycin (Lonza). The cell lines have been cultured at 37° C. in 5% CO2 and have been regularly tested for Mycoplasma contamination. The viability has been measured by means of alamar Blue assay (Thermo Fisher) under treatment for 24 hours with nanomolar to micromolar doses of aza-tanshinones. The mean viability and the standard deviation (SD) per each test compound have been obtained from the dose-response curves for triple doses (0.01, 0.1, 1. 10. 50 μM) in comparison with the control vehicle (DMSO).
(§2) The group of cell lines used in Paragraph 8.2, with the addition of the tumor cell lines of the metastatic breast cancer SK-BR-3 and of the colon adenocarcinoma SW-480, has been used to measure the IC50/cytotoxicity potency of compound 26. The viability assays have been performed as shown in Paragraph 8.2.

[3] = alamar Blue viability assay; assay type: cell-based, human; conditions: human, THP-1 cells (monocytic leukemia), 24 hours, vs DMSO; for viability at 24 h, 10 µM: THP1, 10 μM; for viability at 24 h, 50 µM: THP1, 50 μM
Protocol: as §1, §2

[4] = system: MCF7; assay: alamar Blue viability assay; assay type: cell-based; conditions: for Viability: vs DMSO
Protocol: as §1, §2

[5] = system: MDA-MB-231; assay: alamar Blue viability assay; assay type: cell-based; conditions: for Viability: vs DMSO
Protocol: as §1, §2

[6] = system: PANC-1; assay: alamar Blue viability assay; assay type: cell-based; conditions: for Viability: vs DMSO
Protocol: as §1, §2

[7] = system: SK-BR-3; assay: alamar Blue viability assay; assay type: cell-based
Protocol: as §1, §2

[8] = system: SW-480; assay: alamar Blue viability assay; assay type: cell-based
Protocol: as §1, §2

[9] = system: THP-1; assay: alamar Blue viability assay; assay type: cell-based, human; conditions: for Viability: vs DMSO
Protocol: as §1, §2

[10] = system: TNF mRNA in MCF-7 breast cancer cells; assay: Downregulation of TNF mRNA with LPS co-treatment; assay type: cell-based
Protocol: MCF-7 breast cancer cells (5*10^4/well) have been seeded in 6-well plates and cultured under standard conditions for 24 hours. The MCF-7 cells have then been treated for 3 hours in a complete medium with compound 26, or with DMSO/control vehicle. Three hours of treatment with DHTS in the MCF-7 cells have been enough to observe HuR-dependent post-transcriptional effects (44), whereby the same experimental conditions have been used here, including the co-treatment with lipopolysaccharide (LPS) as positive control to induce the TNF expression.

[11] = system: THP-1 human leukemia monocytes; assay: Cytokine mRNA levels by Q-RT-PCR; assay type: cell-based; conditions: THP-1, LPS 26 vs LPS DMSO = 1
Protocol: THP-1 human leukemia monocytes (5*10^4/well) have been seeded in a 6-well plate and cultured under standard conditions for 24 hours as already described. The mRNA total levels for a group of cytokines have been quantified by means of standard quantitative real-time PCR (Q-RT-PCR). Two-way ANOVA has been applied for a statistical significance of the effects of compound 26 on the decrease of the mRNA of the cytokines.

[12] = system: MDA-MB-231 cells; assay: xCELLigence trans-well migration assay; assay type: cell-based; conditions: MDA-MB-231, THP1-conditioned medium
Text: Migration assays have been carried out by using the xCELLigence RTCA DP Instrument (Roche) by seeding 5,000 cells/well at t0 in CIM-Plates-16 (Roche), using the 1% FBS medium (THP1 conditions) in the lower chamber and MDA-MB-231 cells seeded in the same way in the upper chamber. The ability of the MDA-MB-231 cells to migrate depends also on the presence of cytokines regulated by HuR in the surrounding environment.

[13] = system: MDA-MB-231; assay: Scratch assay; assay type: cell-based; conditions: 24 hours (DMSO 35 ± 1.92)
Protocol: (§3) Scratch assays have been carried out on 6-well plates and, after treatment for 24 hours with aza-tanshinone 26, the empty area of the scratched wells has been calculated by using the ImageJ software. The experiments have been carried out in duplicate.

[14] = system: PANC1; assay: Scratch assay; assay type: cell-based; conditions: 24 hours
Protocol: as §3

[15] = MCF7 cells (breast cancer), MCF7, 10 μM
[16] = MCF7 cells (breast cancer), MCF7, 50 μM
[17] = MDA-MB-231 cells (metastatic breast cancer), MDA-MB-231, 10 μM
[18] = MDA-MB-231 cells (metastatic breast cancer), MDA-MB-231, 50 μM
[19] = PANC-1 cells (pancreatic carcinoma), PANC-1, 10 μM
[20] = PANC-1 cells (pancreatic carcinoma), PANC-1, 50 μM

T1 sequence (Q15717 whole entry): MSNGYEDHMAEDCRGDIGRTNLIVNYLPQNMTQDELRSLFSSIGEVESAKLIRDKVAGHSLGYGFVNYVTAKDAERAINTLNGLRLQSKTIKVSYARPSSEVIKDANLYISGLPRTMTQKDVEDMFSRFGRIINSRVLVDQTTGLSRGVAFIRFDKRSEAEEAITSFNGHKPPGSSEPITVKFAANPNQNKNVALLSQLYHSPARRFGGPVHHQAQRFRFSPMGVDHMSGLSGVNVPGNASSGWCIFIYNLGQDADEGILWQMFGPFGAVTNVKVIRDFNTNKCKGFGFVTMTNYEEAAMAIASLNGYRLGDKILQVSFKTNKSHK

O=C1C=Cc2c(c(-c3ccccc3)cn2S(=O)(=O)c2ccc([N+](=O)[O-])cc2)C1=O [Compound 23, 1-(p-Nitrophenylsulfonyl)-3-phenyl-4,5-dioxo indole]
IC50 [1]: 241 ± 42 nM
viability at 24 h, 10 µM [2, 15]: 100%
viability at 24 h, 50 µM [2, 16]: 66%
viability at 24 h, 10 µM [2, 17]: 104%
viability at 24 h, 50 µM [2, 18]: 80%
viability at 24 h, 10 µM [2, 19]: 92%
viability at 24 h, 50 µM [2, 20]: 36%
viability at 24 h, 10 µM [3]: 98%
viability at 24 h, 50 µM [3]: 31%

O=C1C=Cc2c(c(-c3ccccc3)cn2S(=O)(=O)c2cccc([N+](=O)[O-])c2)C1=O [Compound 24, 1-(m-Nitrophenylsulfonyl)-3-phenyl-4,5-dioxoindole]
IC50 [1]: 342 ± 64 nM
viability at 24 h, 10 µM [2, 15]: 100%
viability at 24 h, 50 µM [2, 16]: 54%
viability at 24 h, 10 µM [2, 17]: 94%
viability at 24 h, 50 µM [2, 18]: 36%
viability at 24 h, 10 µM [2, 19]: 91%
viability at 24 h, 50 µM [2, 20]: 20%
viability at 24 h, 10 µM [3]: 100%
viability at 24 h, 50 µM [3]: 27%

O=C1C=Cc2c(c(-c3ccccc3)cn2S(=O)(=O)c2ccc(F)cc2)C1=O [Compound 25, 1-(p-Fluorophenylsulfonyl)-3-phenyl-4,5-dioxo indole]
viability at 24 h, 10 µM [2, 15]: 100%
viability at 24 h, 50 µM [2, 16]: 63%
viability at 24 h, 10 µM [2, 17]: 103%
viability at 24 h, 50 µM [2, 18]: 50%
viability at 24 h, 10 µM [2, 19]: 100%
viability at 24 h, 50 µM [2, 20]: 29%
viability at 24 h, 10 µM [3]: 100%
viability at 24 h, 50 µM [3]: 35%

O=C1C=Cc2c(c(-c3ccccc3)cn2S(=O)(=O)c2ccccc2)C1=O [Compound 26, 1-Phenylsulfonyl-3-phenyl-4,5-dioxo indole]
IC50 ([4]; Homo sapiens, MCF7, cytotoxicity, 24 hours): 3850 ± 80 nM
% cell death ([4]; MCF7): 71%
IC50 ([5]; Homo sapiens, MDA-MB-231, cytotoxicity, 24 hours): 1570 ± 40 nM
% cell death ([5]; MDA-MB-231): 66%
IC50 ([6]; Homo sapiens, PANC-1, cytotoxicity, 24 hours): 6270 ± 70 nM
% cell death ([6]; PANC-1): 49%
IC50 ([7]; Homo sapiens, SK-BR-3, cytotoxicity, 24 hours): 5180 ± 110 nM
% cell death ([7]; SK-BR-3): 57%
IC50 ([8]; Homo sapiens, SW480, cytotoxicity, 24 hours): 4810 ± 230 nM
% cell death ([8]; SW480): 62%
IC50 ([9]; Homo sapiens, THP-1, cytotoxicity, 24 hours): 9770 ± 150 nM
% cell death ([9]; THP-1): 52%
TNF mRNA level ([10]; MCF-7, LPS+26, 3 hours (LPS+DMSO 1.62)): 1.00
TNF RNA amount ([10]; MCF-7, LPS+26 relative to LPS+DMSO, 3 hours): 62%
reduction of the TNF mRNA with respect to the control ([10]; MCF-7, after 3 hours): 35%
CCL2 mRNA level [11]: 0.88
CCL5 mRNA level [11]: 0.51
CCL8 mRNA level [11]: 0.00
IFNA1 mRNA level [11]: 0.46
IFNB1 mRNA level [11]: 0.33
IFNG mRNA level [11]: 0.38
IL1A mRNA level [11]: 1.04
IL1B mRNA level [11]: 0.22
IL2 mRNA level [11]: 1.18
IL4 mRNA level [11]: 0.82
IL7 mRNA level [11]: 0.56
IL8 mRNA level [11]: 0.15
IL10 mRNA level [11]: 0.16
IL13 mRNA level [11]: 0.53
IL15 mRNA level [11]: 0.91
IL17A mRNA level [11]: 0.30
IL18 mRNA level [11]: 0.36
IL19 mRNA level [11]: 0.01
TNF mRNA level [11]: 0.38
Minimum of trans-well migration ([12]; 26 1 μM (LPS control 0.7176)): 0.1057
Maximum of trans-well migration ([12]; 26 1 μM (LPS control 3.053)): 1.246
Minimum of trans-well migration ([12]; 26 5 μM (LPS control 0.7176)): 0.1416
Maximum of trans-well migration ([12]; 26 5 μM (LPS control 3.053)): 0.3311
empty area of the scratched wells ([13]; MDA-MB-231, 26 1 μM): 45 ± 4
empty area of the scratched wells ([13]; MDA-MB-231, 26 5 μM): 45 ± 1
empty area of the scratched wells ([14]; PANC1, 26 1 μM): 38 ± 7
empty area of the scratched wells ([14]; PANC1, 26 5 μM): 32 ± 0.01

O=C1C=Cc2c(c(-c3ccccc3)cn2S(=O)(=O)c2cccc(F)c2)C1=O [Compound 27, 1-(m-Fluorophenylsulfonyl)-3-phenyl-4,5-dioxo indole]
IC50 [1]: 251 ± 31 nM
viability at 24 h, 10 µM [2, 15]: 108%
viability at 24 h, 50 µM [2, 16]: 79%
viability at 24 h, 10 µM [2, 17]: 103%
viability at 24 h, 50 µM [2, 18]: 51%
viability at 24 h, 10 µM [2, 19]: 102%
viability at 24 h, 50 µM [2, 20]: 20%
viability at 24 h, 10 µM [3]: 83%
viability at 24 h, 50 µM [3]: 32%

COc1ccc(-c2cn(S(=O)(=O)c3ccccc3)c3c2C(=O)C(=O)C=C3)cc1 [Compound 28, 1-phenylsulfonyl-3-(p-methoxyphenyl)-4,5-dioxo indole]
IC50 [1]: 287 ± 30 nM
viability at 24 h, 10 µM [2, 15]: 91%
viability at 24 h, 50 µM [2, 16]: 75%
viability at 24 h, 10 µM [2, 17]: 106%
viability at 24 h, 50 µM [2, 18]: 57%
viability at 24 h, 10 µM [2, 19]: 90%
viability at 24 h, 50 µM [2, 20]: 32%
viability at 24 h, 10 µM [3]: 105%
viability at 24 h, 50 µM [3]: 46%

COc1cccc(-c2cn(S(=O)(=O)c3ccccc3)c3c2C(=O)C(=O)C=C3)c1 [Compound 29, 1-Phenylsulfonyl-3-(m-methoxyphenyl)-4,5-dioxoindole]
IC50 [1]: 352 ± 57 nM

O=C1C(=O)c2c(-c3ccccc3)cn(S(=O)(=O)c3ccccc3)c2C2=C1C1CCC2CC1 [Compound 32, 3-Phenyl-1-phenylsulfonyl-4,5-dioxo-6,9-ethanbenzo[g]indole]
IC50 [1]: 121 ± 55 nM
Viability ([4]; MCF7, 10 μM, 24 hours): 1.09
Viability ([4]; MCF7, 50 μM, 24 hours): 0.14
Viability ([5]; MDA-MB-231, 10 μM, 24 hours): 1.00
Viability ([5]; MDA-MB-231, 50 μM, 24 hours): 0.28
Viability ([6]; PANC-1, 10 μM, 24 hours): 0.85
Viability ([6]; PANC-1, 50 μM, 24 hours): 0.15
Viability ([9]; THP1, 10 μM, 24 hours): 0.55
Viability ([9]; THP1, 50 μM, 24 hours): 0.00
cell death ([9]; THP-1 cells, 10 μM): greater than 20%

Cc1cccc2c3c(ccc12)C1=C(C(=O)C3=O)[C@@H](C)CO1 [DHTS, Dihydrotanshinone, reference compound]
Ki ([1]; 1-site competition model, RNA 50 nM, Kd 2.5 nM, read-out: Complete Ki): 3.74 ± 1.63 nM
IC50 [1]: 149 ± 34 nM
